Reference: patent publication US9707305B2, “Formulas for diagnosing and treating hormone-dependent cancers and cancers of the organs responsible for steroid hormone synthesis” (Commissariat à l'énergie atomique et aux énergies …, priority 2011, dated 2017)

Test: Biodistribution of the nano-emulsion of Example 1.1 in male mice (Tables 15 to 21)
Type: in vivo
Conditions: FVB male mouse
Description: In the following examples, the radioactivity was counted with the TRiCarb Counter (Ref: Packard, Liquid Scintillation Analyzers; Models 2200CA).
Fluobeam 700 (Fluoptics) is the apparatus with which the whole of the organs from the biodistribution were analyzed in fluorescence as well as the one with which the biodistribution kinetics of the nano-emulsions were established in vivo. This imaging system allows viewing of the fluorescence in spectral bands from 700 to 850 nm for a 650 nm excitation. The apparatus consists of an electric case containing the laser of class 3B, its power supply and an optical head containing the CCD camera. […]

## CCCCCCCCCCCCCCCCO[C@H]1CC[C@@]2(C)C(=CC[C@H]3[C@@H]4CC[C@H]([C@H](C)CCCC(C)C)[C@@]4(C)CC[C@@H]32)C1 [[3H]CHE, cholesteryl hexadecylether]
2 h
  tracer in Adrenal gland: 10.16 percentage of the dose injected per gram of tissue
  tracer in Brain: 0.35 percentage of the dose injected per gram of tissue
  tracer in Fat: 1.14 percentage of the dose injected per gram of tissue
  tracer in Heart: 9.84 percentage of the dose injected per gram of tissue
  tracer in Intestine: 2.44 percentage of the dose injected per gram of tissue
  tracer in Kidney: 5.29 percentage of the dose injected per gram of tissue
  tracer in Liver: 22.67 percentage of the dose injected per gram of tissue
  tracer in Lung: 5.08 percentage of the dose injected per gram of tissue
  tracer in Muscle: 0.99 percentage of the dose injected per gram of tissue
  tracer in Pancreas: 1.64 percentage of the dose injected per gram of tissue
  tracer in Salivary gland: 1.53 percentage of the dose injected per gram of tissue
4 h
  tracer in Adrenal gland: 16.96 percentage of the dose injected per gram of tissue
  tracer in Brain: 0.23 percentage of the dose injected per gram of tissue
  tracer in Fat: 0.74 percentage of the dose injected per gram of tissue
  tracer in Heart: 7.57 percentage of the dose injected per gram of tissue
  tracer in Intestine: 1.98 percentage of the dose injected per gram of tissue
  tracer in Kidney: 3.14 percentage of the dose injected per gram of tissue
  tracer in Liver: 17.25 percentage of the dose injected per gram of tissue
  tracer in Lung: 2.98 percentage of the dose injected per gram of tissue
  tracer in Muscle: 0.56 percentage of the dose injected per gram of tissue
  tracer in Pancreas: 1.50 percentage of the dose injected per gram of tissue
  tracer in Salivary gland: 1.26 percentage of the dose injected per gram of tissue
6 h
  tracer in Adrenal gland: 13.399 percentage of the dose injected per gram of tissue
  tracer in Brain: 0.24 percentage of the dose injected per gram of tissue
  tracer in Fat: 1.234 percentage of the dose injected per gram of tissue
  tracer in Heart: 8.52 percentage of the dose injected per gram of tissue
  tracer in Intestine: 2.549 percentage of the dose injected per gram of tissue
  tracer in Kidney: 3.336 percentage of the dose injected per gram of tissue
  tracer in Liver: 22.609 percentage of the dose injected per gram of tissue
  tracer in Lung: 3.771 percentage of the dose injected per gram of tissue
  tracer in Muscle: 0.77 percentage of the dose injected per gram of tissue
  tracer in Pancreas: 1.67 percentage of the dose injected per gram of tissue
  tracer in Salivary gland: 2.10 percentage of the dose injected per gram of tissue
16 h
  tracer in Adrenal gland: 32.89 percentage of the dose injected per gram of tissue
  tracer in Brain: 0.18 percentage of the dose injected per gram of tissue
  tracer in Fat: 1.70 percentage of the dose injected per gram of tissue
  tracer in Heart: 8.50 percentage of the dose injected per gram of tissue
  tracer in Intestine: 5.19 percentage of the dose injected per gram of tissue
  tracer in Kidney: 2.40 percentage of the dose injected per gram of tissue
  tracer in Liver: 40.91 percentage of the dose injected per gram of tissue
  tracer in Lung: 5.31 percentage of the dose injected per gram of tissue
  tracer in Muscle: 0.97 percentage of the dose injected per gram of tissue
  tracer in Pancreas: 1.92 percentage of the dose injected per gram of tissue
  tracer in Salivary gland: 2.68 percentage of the dose injected per gram of tissue
24 h
  tracer in Adrenal gland: 17.41 percentage of the dose injected per gram of tissue
  tracer in Brain: 0.11 percentage of the dose injected per gram of tissue
  tracer in Fat: 0.83 percentage of the dose injected per gram of tissue
  tracer in Heart: 5.76 percentage of the dose injected per gram of tissue
  tracer in Intestine: 3.41 percentage of the dose injected per gram of tissue
  tracer in Kidney: 1.80 percentage of the dose injected per gram of tissue
  tracer in Liver: 30.93 percentage of the dose injected per gram of tissue
  tracer in Lung: 2.88 percentage of the dose injected per gram of tissue
  tracer in Muscle: 0.38 percentage of the dose injected per gram of tissue
  tracer in Pancreas: 1.31 percentage of the dose injected per gram of tissue
  tracer in Salivary gland: 1.57 percentage of the dose injected per gram of tissue
48 h
  tracer in Adrenal gland: 25.12 percentage of the dose injected per gram of tissue
  tracer in Brain: 0.10 percentage of the dose injected per gram of tissue
  tracer in Fat: 0.94 percentage of the dose injected per gram of tissue
  tracer in Heart: 6.05 percentage of the dose injected per gram of tissue
  tracer in Intestine: 3.50 percentage of the dose injected per gram of tissue
  tracer in Kidney: 1.77 percentage of the dose injected per gram of tissue
  tracer in Liver: 24.53 percentage of the dose injected per gram of tissue
  tracer in Lung: 3.02 percentage of the dose injected per gram of tissue
  tracer in Muscle: 0.63 percentage of the dose injected per gram of tissue
  tracer in Pancreas: 0.99 percentage of the dose injected per gram of tissue
  tracer in Salivary gland: 2.07 percentage of the dose injected per gram of tissue
72 h
  tracer in Adrenal gland: 46.41 percentage of the dose injected per gram of tissue
  tracer in Brain: 0.11 percentage of the dose injected per gram of tissue
  tracer in Fat: 0.70 percentage of the dose injected per gram of tissue
  tracer in Heart: 7.83 percentage of the dose injected per gram of tissue
  tracer in Intestine: 3.47 percentage of the dose injected per gram of tissue
  tracer in Kidney: 1.82 percentage of the dose injected per gram of tissue
  tracer in Liver: 24.97 percentage of the dose injected per gram of tissue
  tracer in Lung: 3.04 percentage of the dose injected per gram of tissue
  tracer in Muscle: 0.49 percentage of the dose injected per gram of tissue
  tracer in Pancreas: 1.12 percentage of the dose injected per gram of tissue
Ovary, 24 h
  tracer in Ovary: 1.71 percentage of the dose injected per gram of tissue
